Measurements from PubChem BioAssay AID248 (DTP/NCI, 2004).
Values joined by “and” are separate entries in the source; they are usually repeats but may differ in a detail not shown here. Identical values can stand only once. Inconclusive results and toxic doses are left out. No stated cut-off is given here; in the data, active means T/C of 150% or more; inactive means T/C below 125%.

System: L1210 leukemia ip in BDF1 mice, survival T/C
Assay: NCI In Vivo Anticancer Drug Screen. Data for tumor model L1210 Leukemia (intraperitoneal) in B6D2F1 (BDF1) mice
Settings: endpoint: mean survival time, higher = longer survival
Outline: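 Antitumor effect is assessed in tumor-bearing animals. Survival in the compound arm is compared with a vehicle-dosed control arm and expressed as their quotient.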

[1] = dose: 100.0 mg/kg/injection, schedule: Q01DX009 (ip), vehicle: Klucel (hydroxypropylcellulose) (HPC)
[2] = dose: 100.0 mg/kg/injection, schedule: Q04DX003 (ip), vehicle: Klucel (hydroxypropylcellulose) (HPC)
[3] = dose: 200.0 mg/kg/injection, schedule: Q01DX009 (ip), vehicle: Klucel (hydroxypropylcellulose) (HPC)
[4] = dose: 200.0 mg/kg/injection, schedule: Q04DX003 (ip), vehicle: Klucel (hydroxypropylcellulose) (HPC)
[5] = dose: 400.0 mg/kg/injection, schedule: Q01DX009 (ip), vehicle: Klucel (hydroxypropylcellulose) (HPC)
[6] = dose: 100.0 mg/kg/injection, schedule: Q01DX009 (ip), vehicle: saline with Tween-80
[7] = dose: 200.0 mg/kg/injection, schedule: Q01DX009 (ip), vehicle: saline with Tween-80
[8] = dose: 50.0 mg/kg/injection, schedule: Q01DX001 (ip), vehicle: other
[9] = dose: 100.0 mg/kg/injection, schedule: Q01DX001 (ip), vehicle: other
[10] = dose: 200.0 mg/kg/injection, schedule: Q01DX001 (ip), vehicle: other
[11] = dose: 400.0 mg/kg/injection, schedule: Q01DX001 (ip), vehicle: other
[12] = dose: 50.0 mg/kg/injection, schedule: Q04DX003 (ip), vehicle: saline with Tween-80
[13] = dose: 100.0 mg/kg/injection, schedule: Q04DX003 (ip), vehicle: saline with Tween-80
[14] = dose: 200.0 mg/kg/injection, schedule: Q04DX003 (ip), vehicle: saline with Tween-80
[15] = dose: 400.0 mg/kg/injection, schedule: Q04DX003 (ip), vehicle: saline with Tween-80
[16] = dose: 400.0 mg/kg/injection, schedule: Q04DX003 (ip), vehicle: Klucel (hydroxypropylcellulose) (HPC)

Measured: T/C

O=C(O)c1cc(C(=O)c2ccccn2)c2cccc(C(F)(F)F)c2n1
inactive: dose: 50.0 mg/kg/injection, schedule: Q01DX009 (ip), vehicle: Klucel (hydroxypropylcellulose) (HPC) 98 % of control | [1] 95 % of control | [2] 97 % of control | [3] 93 % of control | [4] 97 % of control

O=C(Nc1ccc(Cl)c(Cl)c1)Nc1cccc2nsnc12
inactive: [1] 92 % of control | [3] 92 % of control | [5] 92 % of control

COc1cc2c(cc1O)C(=O)CCC2
inactive: dose: 50.0 mg/kg/injection, schedule: Q01DX009 (ip), vehicle: saline with Tween-80 107 % of control | [6] 96 % of control | [7] 93 % of control

Cn1c(=O)c2[nH]c(CC3=CCCCC3)nc2n(C)c1=O
inactive: [8] 97 % of control | [9] 92 % of control | [10] 95 % of control | [11] 90 % of control

COc1cc(N(CCCl)CCCl)ccc1C=Nc1ccc2c(c1)ncn2C
inactive: dose: 75.0 mg/kg/injection, schedule: Q04DX002 (ip), vehicle: Klucel (hydroxypropylcellulose) (HPC) 112 % of control | dose: 150.0 mg/kg/injection, schedule: Q04DX002 (ip), vehicle: Klucel (hydroxypropylcellulose) (HPC) 101 % of control | dose: 300.0 mg/kg/injection, schedule: Q04DX002 (ip), vehicle: Klucel (hydroxypropylcellulose) (HPC) 108 % of control

CC(C)OC(=O)COc1cc(F)c(Cl)cc1Cl
inactive: dose: 100.0 mg/kg/injection, schedule: Q04DX002 (ip), vehicle: Klucel (hydroxypropylcellulose) (HPC) 102 % of control | dose: 200.0 mg/kg/injection, schedule: Q04DX002 (ip), vehicle: Klucel (hydroxypropylcellulose) (HPC) 95 % of control | dose: 400.0 mg/kg/injection, schedule: Q04DX002 (ip), vehicle: Klucel (hydroxypropylcellulose) (HPC) 102 % of control

Cc1ccc(Cl)cc1NC(=O)Nc1cccc2ccc(O)cc12
inactive: [12] 102 % of control | dose: 100.0 mg/kg/injection, schedule: Q01DX001 (ip), vehicle: saline with Tween-80 95 % of control | [6] 95 % of control and 101 % of control | dose: 100.0 mg/kg/injection, schedule: Q04DX002 (ip), vehicle: saline with Tween-80 102 % of control and 90 % of control | [13] 96 % of control | dose: 200.0 mg/kg/injection, schedule: Q01DX001 (ip), vehicle: saline with Tween-80 97 % of control | [7] 88 % of control and 92 % of control | dose: 200.0 mg/kg/injection, schedule: Q04DX002 (ip), vehicle: saline with Tween-80 95 % of control and 91 % of control | [14] 91 % of control | dose: 400.0 mg/kg/injection, schedule: Q01DX001 (ip), vehicle: saline with Tween-80 101 % of control | dose: 400.0 mg/kg/injection, schedule: Q01DX009 (ip), vehicle: saline with Tween-80 95 % of control and 103 % of control | dose: 400.0 mg/kg/injection, schedule: Q04DX002 (ip), vehicle: saline with Tween-80 87 % of control and 90 % of control | [15] 96 % of control

N=C(N)SCCCCCSC(=N)N
inactive: dose: 100.0 mg/kg/injection, schedule: Q01DX001 (ip), vehicle: saline 124 % of control | dose: 100.0 mg/kg/injection, schedule: Q04DX002 (ip), vehicle: saline 110 % of control | dose: 200.0 mg/kg/injection, schedule: Q01DX001 (ip), vehicle: saline 109 % of control | dose: 200.0 mg/kg/injection, schedule: Q04DX002 (ip), vehicle: saline 91 % of control

C/C(=N/O)c1c[n+]([O-])ccn1
inactive: dose: 100.0 mg/kg/injection, schedule: Q01DX009 (ip), vehicle: saline 102 % of control | [2] 94 % of control | dose: 100.0 mg/kg/injection, schedule: Q04DX003 (ip), vehicle: saline 101 % of control | dose: 200.0 mg/kg/injection, schedule: Q01DX009 (ip), vehicle: saline 94 % of control | [4] 94 % of control | dose: 200.0 mg/kg/injection, schedule: Q04DX003 (ip), vehicle: saline 98 % of control | dose: 400.0 mg/kg/injection, schedule: Q01DX009 (ip), vehicle: saline 96 % of control | [16] 100 % of control | dose: 400.0 mg/kg/injection, schedule: Q04DX003 (ip), vehicle: saline 102 % of control

CN1CCN(C2=Cc3ccccc3C(O)C(Cc3ccccc3)=N2)CC1 (stereo not given)
inactive: [13] 100 % of control | [14] 96 % of control | [15] 96 % of control

COc1ccc(Cl)cc1NS(=O)(=O)c1ccc(Cl)c([N+](=O)[O-])c1
inactive: [1] 98 % of control | [3] 109 % of control | [5] 98 % of control

NC(C(=O)O)C(O)C(=O)O (stereo not given)
inactive: dose: 75.0 mg/kg/injection, schedule: Q04DX003 (ip), vehicle: saline 98 % of control | dose: 150.0 mg/kg/injection, schedule: Q04DX003 (ip), vehicle: saline 98 % of control | dose: 300.0 mg/kg/injection, schedule: Q04DX003 (ip), vehicle: saline 96 % of control

O=C(Nc1ccc(Br)cc1C(F)(F)F)C(F)(F)F
inactive: dose: 50.0 mg/kg/injection, schedule: Q04DX003 (ip), vehicle: Klucel (hydroxypropylcellulose) (HPC) 102 % of control | dose: 100.0 mg/kg/injection, schedule: Q01DX001 (ip), vehicle: Klucel (hydroxypropylcellulose) (HPC) 100 % of control | [2] 104 % of control | dose: 200.0 mg/kg/injection, schedule: Q01DX001 (ip), vehicle: Klucel (hydroxypropylcellulose) (HPC) 94 % of control | [4] 112 % of control | dose: 400.0 mg/kg/injection, schedule: Q01DX001 (ip), vehicle: Klucel (hydroxypropylcellulose) (HPC) 97 % of control | [16] 105 % of control

CCCCNC(=O)NC/C(Br)=C/Br
inactive: dose: 75.0 mg/kg/injection, schedule: Q01DX009 (ip), vehicle: Klucel (hydroxypropylcellulose) (HPC) 101 % of control | [2] 98 % of control | dose: 150.0 mg/kg/injection, schedule: Q01DX009 (ip), vehicle: Klucel (hydroxypropylcellulose) (HPC) 100 % of control | [4] 96 % of control | dose: 300.0 mg/kg/injection, schedule: Q01DX009 (ip), vehicle: Klucel (hydroxypropylcellulose) (HPC) 97 % of control | [16] 93 % of control

CCn1c(/C=N/NC(N)=S)cc2ccccc21
inactive: [8] 104 % of control | [9] 109 % of control | [10] 104 % of control | [11] 104 % of control

CCOC(=O)N/N=C/c1c(F)cccc1Cl
inactive: dose: 75.0 mg/kg/injection, schedule: Q01DX001 (ip), vehicle: carboxymethylcellulose (CMC) 101 % of control | dose: 150.0 mg/kg/injection, schedule: Q01DX001 (ip), vehicle: carboxymethylcellulose (CMC) 106 % of control | dose: 300.0 mg/kg/injection, schedule: Q01DX001 (ip), vehicle: carboxymethylcellulose (CMC) 101 % of control

COc1ccc(Cl)cc1NC(=O)Nc1ccccc1
inactive: [1] 87 % of control | [2] 99 % of control | [3] 94 % of control | [4] 97 % of control | [5] 89 % of control | [16] 92 % of control

S=C1NC(c2cccs2)N2C(=S)NC(c3cccs3)N12 (stereo not given)
inactive: dose: 100.0 mg/kg/injection, schedule: Q01DX009 (ip), vehicle: gum acacia 96 % of control | dose: 100.0 mg/kg/injection, schedule: Q04DX003 (ip), vehicle: gum acacia 92 % of control | dose: 200.0 mg/kg/injection, schedule: Q01DX009 (ip), vehicle: gum acacia 91 % of control | dose: 200.0 mg/kg/injection, schedule: Q04DX003 (ip), vehicle: gum acacia 97 % of control | dose: 400.0 mg/kg/injection, schedule: Q01DX009 (ip), vehicle: gum acacia 98 % of control | dose: 400.0 mg/kg/injection, schedule: Q04DX003 (ip), vehicle: gum acacia 97 % of control

O=S(=O)(Cl)OC1C2COC(O2)C(OS(=O)(=O)Cl)C1OS(=O)(=O)Cl (stereo not given)
inactive: dose: 12.5 mg/kg/injection, schedule: Q04DX003 (ip), vehicle: saline with Tween-80 102 % of control | dose: 25.0 mg/kg/injection, schedule: Q04DX003 (ip), vehicle: saline with Tween-80 92 % of control | [12] 96 % of control

CC1(C)CN1CC1CO1 (stereo not given)
inactive: dose: 3.0 mg/kg/injection, schedule: Q01DX Z (ip), vehicle: saline 120 % of control | dose: 5.0 mg/kg/injection, schedule: Q01DX Z (ip), vehicle: saline 120 % of control | dose: 7.0 mg/kg/injection, schedule: Q01DX Z (ip), vehicle: saline 114 % of control and 118 % of control and 124 % of control | dose: 11.0 mg/kg/injection, schedule: Q01DX Z (ip), vehicle: saline 109 % of control
